In ChEMBL document CHEMBL1130621, “Synthesis of a non-nucleoside reverse transcriptase inhibitor in the alkenyldiarylmethane (ADAM) series with optimized potency and therapeutic index” (Bioorg Med Chem Lett, 1998):

Key:
MT4 [1] = assay: Compound was tested for the inhibition of cytopathic effect of HIV-1 6S in MT-4 cells; format: functional, Homo sapiens
MT4 [2] = assay: Compound was tested for the inhibition of cytopathic effect of HIV-1 N119 in MT-4 cells; format: functional, Homo sapiens
CEM-SS [3] = assay: Compound was tested for the prevention of cytopathic effect of HIV-1 RF in CEM-SS cells; format: functional, cell-based; settings: Homo sapiens
CEM-SS [4] = assay: Compound was tested for cytotoxicity in uninfected CEM-SS cells; format: functional; settings: Homo sapiens

SMILES	Activity (MT4 [1])	Activity (MT4 [2])	EC50 (CEM-SS [3])	CC50 (CEM-SS [4])
CCCCCC=C(c1cc(Br)c(OC)c(C(=O)OC)c1)c1cc(Br)c(OC)c(C(=O)OC)c1	0.56 µM	151 µM	–	–
COC(=O)CCCC=C(c1cc(Cl)c(OC)c(C(=O)OC)c1)c1cc(Cl)c(OC)c(C(=O)OC)c1	–	–	0.013 µM	31.6 µM
